Source: PMC5865291, “A fast and sensitive activity assay for lytic polysaccharide monooxygenase” (Biotechnology for Biofuels, 2018)

Target: T1, NcLPMO9F (Neurospora crassa, UniProt Q1K4Q1)
T1 construct: gene gh61-6; recombinant secreted from Pichia pastoris X-33, column purified; 23,200 g/mol
T1 sequence (Q1K4Q1 18-231): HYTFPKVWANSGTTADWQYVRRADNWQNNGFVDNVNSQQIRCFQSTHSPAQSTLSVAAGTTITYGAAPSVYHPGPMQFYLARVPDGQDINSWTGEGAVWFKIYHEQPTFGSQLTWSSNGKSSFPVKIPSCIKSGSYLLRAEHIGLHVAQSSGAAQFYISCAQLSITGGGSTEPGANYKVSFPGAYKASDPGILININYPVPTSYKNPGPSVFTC
Assay: spectrophotometric peroxidase assay at […] nm (coerulignone formation)
Format: biochemical
Conditions: H2O2 cosubstrate, standard conditions (30 °C); turnover only

Question: `COc1cccc(OC)c1O` [2,6-dimethoxyphenol] was tested. Which specific activity did it give?
Answer: The specific activity was “The peroxidase activity was found for three different LPMOs from two different organisms”.
